Data reported in article doi:10.1101/2025.02.28.640722v1 (biorxiv, 2025).
Square brackets hold non-standard residues; d marks the D form. Peptide text beside a SMILES is read from it. * marks the point of attachment. hCha = N[C@@H](CCC1CCCCC1)C(=O)O; Bz = O=C(c1ccccc1)*

Biological target: Human mitochondrial ClpP (hClpP) (Homo sapiens, UniProt Q16740)
Assay: peptidase activation
Type: biochemical
Settings: activator at 1.5 mM, 200 nM human ClpP, no ATPase partner

Human mitochondrial ClpP (hClpP), sequence (Q16740 57-277): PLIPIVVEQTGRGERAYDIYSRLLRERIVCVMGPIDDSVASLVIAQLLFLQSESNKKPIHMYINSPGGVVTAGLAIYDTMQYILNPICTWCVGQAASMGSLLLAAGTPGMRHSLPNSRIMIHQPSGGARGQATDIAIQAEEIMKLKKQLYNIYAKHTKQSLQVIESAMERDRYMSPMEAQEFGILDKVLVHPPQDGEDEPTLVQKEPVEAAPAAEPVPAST

CC[C@H](C)[C@H](NC(=O)[C@H](CCC1CCCCC1)NC(=O)c1ccccc1)C(=O)O [Bz-ChEtg-Ile] (Bz-[hCha]-Ile-OH)
fold activation: >15 times
